In one test the target is T1, DRB1*0101 (Homo sapiens, UniProt P01903+P01911, A100R/D57E/F55L/F60I/F76Y/I96L/L162R/M171V/P40L/Q125E/R42F/V115G/Y59C).
T1 construct: endogenous in cells; host or cells: cell lysate
Nature of the test: Competition binding assay using soluble HLA class II.

Another test concerns the target T2, B*0702 (Homo sapiens, UniProt P01889).
T2 construct: endogenous in cells
Nature of the test: Competition binding assay using soluble HLA class I. The note with it: for Ki: Ki (nM), HLA-B0702 section.

Where a SMILES comes first, the peptide text is derived from it.

Broadly, the IC50 is the point on the concentration scale where inhibition reaches its midpoint. A high value points to weaker potency. The Ki is a measure of affinity in units of concentration, obtained from inhibition or displacement. Low readings indicate a stronger hold on the target, high ones a looser hold on the target.

`CC[C@H](C)[C@H](NC(=O)[C@H](Cc1ccc(O)cc1)NC(=O)CNC(=O)[C@H](CCSC)NC(=O)[C@H](CC(C)C)NC(=O)[C@H](CC(=O)O)NC(=O)[C@H](C)N)C(=O)N1CCC[C@H]1C(=O)N[C@@H](CC(C)C)C(=O)N[C@H](C(=O)NCC(=O)N[C@@H](C)C(=O)N1CCC[C@H]1C(=O)N[C@@H](CC(C)C)C(=O)NCC(=O)O)C(C)C` had an IC50 at DRB1*0101 of 8330 nM.

On B*0702, `CC(C)C[C@H](NC(=O)[C@@H]1CCCN1C(=O)[C@H](C)N)C(=O)NCC(=O)NCC(=O)N[C@@H](C)C(=O)N[C@@H](C)C(=O)N[C@@H](CCCNC(=N)N)C(=O)N[C@@H](C)C(=O)O` had an IC50 of 115 nM and a Ki of 115 nM.

In the case of `CC(C)C[C@H](NC(=O)[C@H](CCCCN)NC(=O)[C@H](CCCNC(=N)N)NC(=O)[C@H](CC(C)C)NC(=O)[C@H](CS)NC(=O)[C@H](CO)NC(=O)[C@H](C)N)C(=O)NCC(=O)N[C@H](C(=O)N1CCC[C@H]1C(=O)N1CCC[C@H]1C(=O)N[C@@H](CC(C)C)C(=O)N[C@@H](CCCNC(=N)N)C(=O)N[C@H](C(=O)N[C@@H](Cc1c[nH]c2ccccc12)C(=O)O)C(C)C)C(C)C`, on DRB1*0101, the IC50 is 4.9 nM.

For the compound `CC(C)C[C@H](NC(=O)[C@H](CCC(N)=O)NC(=O)[C@H](CO)NC(=O)[C@H](C)N)C(=O)N[C@@H](CO)C(=O)N[C@@H](C)C(=O)N1CCC[C@H]1C(=O)N[C@@H](CO)C(=O)N[C@@H](CC(C)C)C(=O)N[C@@H](CCCCN)C(=O)N[C@@H](C)C(=O)N[C@H](C(=O)N[C@@H](CS)C(=O)N[C@H](C(=O)N[C@H](C(=O)O)[C@@H](C)O)[C@@H](C)O)[C@@H](C)O`, the IC50 on DRB1*0101 came to 329 nM.

On DRB1*0101, `CC(C)C[C@H](NC(=O)[C@@H](NC(=O)[C@H](C)NC(=O)[C@H](C)NC(=O)[C@@H](NC(=O)[C@H](CO)NC(=O)[C@@H]1CCCN1C(=O)[C@H](CC(N)=O)NC(=O)[C@H](CC(C)C)NC(=O)[C@@H](NC(=O)[C@H](CC(C)C)NC(=O)[C@@H](NC(=O)[C@H](CCCCN)NC(=O)[C@H](Cc1ccc(O)cc1)NC(=O)CN)C(C)C)C(C)C)C(C)C)[C@@H](C)O)C(=O)O` registered an IC50 of 8.4 nM. This IC50 is about 39-fold lower than that of the compound before.

`CC(C)C[C@H](NC(=O)[C@H](CCCNC(=N)N)NC(=O)[C@@H]1CCCN1C(=O)CNC(=O)[C@H](CCCNC(=N)N)NC(=O)[C@H](CCCNC(=N)N)NC(=O)[C@@H]1CCCN1C(=O)[C@@H](N)CC(C)C)C(=O)O`: the affinity on B*0702 corresponds to a Ki of 1 nM.

At B*0702, `CC(C)C[C@H](NC(=O)[C@H](CCCNC(=N)N)NC(=O)[C@@H]1CCCN1C(=O)CNC(=O)[C@H](CCCNC(=N)N)NC(=O)[C@H](CCCNC(=N)N)NC(=O)[C@@H]1CCCN1C(=O)[C@@H](N)CC(C)C)C(=O)NCC(=O)O` returned an IC50 of 124 nM and a Ki of 124 nM.

The compound `CC[C@H](C)[C@H](NC(=O)[C@H](CC(N)=O)NC(=O)CNC(=O)[C@H](CC(C)C)NC(=O)[C@H](Cc1c[nH]c2ccccc12)NC(=O)[C@H](CO)NC(=O)[C@@H](N)CC(N)=O)C(=O)N[C@H](C(=O)N[C@@H](CCSC)C(=O)N[C@@H](Cc1ccc(O)cc1)C(=O)N[C@@H](C)C(=O)N1CCC[C@H]1C(=O)N[C@H](C(=O)N[C@@H](CC(C)C)C(=O)N[C@@H](Cc1c[nH]c2ccccc12)C(=O)O)[C@@H](C)O)[C@@H](C)CC` showed an IC50 at DRB1*0101 of 1.2 nM.

On to `CC(C)[C@H](NC(=O)CNC(=O)[C@H](CCCNC(=N)N)NC(=O)[C@@H](NC(=O)[C@H](CS)NC(=O)[C@@H](NC(=O)[C@H](C)NC(=O)[C@H](C)NC(=O)[C@@H](N)CCCNC(=N)N)C(C)C)[C@@H](C)O)C(=O)N[C@@H](C)C(=O)N[C@@H](CCCCN)C(=O)N[C@@H](C)C(=O)N[C@H](C(=O)N[C@@H](CC(=O)O)C(=O)N[C@@H](Cc1ccccc1)C(=O)O)C(C)C`, for which the IC50 at DRB1*0101 turned out to be 619 nM.

As to `CC[C@H](C)[C@H](NC(=O)[C@H](CC(C)C)NC(=O)[C@H](C)NC(=O)CNC(=O)[C@@H](NC(=O)[C@H](Cc1c[nH]c2ccccc12)NC(=O)[C@@H](NC(=O)[C@H](Cc1ccc(O)cc1)NC(=O)[C@@H](N)CO)[C@@H](C)O)[C@@H](C)O)C(=O)N[C@H](C(=O)N1CCC[C@H]1C(=O)N[C@@H](CS)C(=O)N[C@@H](C)C(=O)N[C@@H](C)C(=O)N[C@@H](CCC(=O)O)C(=O)O)[C@@H](C)O`, the IC50 on DRB1*0101 was 5.63 nM.

For `CC[C@H](C)[C@H](NC(=O)[C@H](CC(N)=O)NC(=O)CNC(=O)[C@H](CC(C)C)NC(=O)[C@H](Cc1c[nH]c2ccccc12)NC(=O)[C@H](CO)NC(=O)[C@H](CC(N)=O)NC(=O)[C@@H](N)C(C)C)C(=O)N[C@H](C(=O)N[C@@H](CCSC)C(=O)N[C@@H](Cc1ccc(O)cc1)C(=O)N[C@@H](C)C(=O)N1CCC[C@H]1C(=O)N[C@H](C(=O)N[C@@H](CC(C)C)C(=O)O)[C@@H](C)O)[C@@H](C)CC`, the IC50 on DRB1*0101 came out at 1.42 nM.

In the case of `CC[C@H](C)[C@H](NC(=O)[C@H](Cc1c[nH]cn1)NC(=O)[C@@H](NC(=O)[C@H](CC(C)C)NC(=O)CNC(=O)[C@@H](NC(=O)[C@H](Cc1ccccc1)NC(=O)[C@@H](NC(=O)[C@H](CO)NC(=O)[C@H](CCC(=O)O)NC(=O)[C@@H](N)Cc1c[nH]c2ccccc12)C(C)C)[C@@H](C)O)[C@@H](C)O)C(=O)N[C@@H](CC(=O)O)C(=O)N[C@@H](C)C(=O)N[C@@H](Cc1c[nH]cn1)C(=O)N[C@@H](Cc1ccccc1)C(=O)O`, at DRB1*0101, the IC50 stood at 122 nM. Compared with the last compound, the IC50 is about 86-fold higher.

As for `CC(C)C[C@H](NC(=O)CNC(=O)[C@H](CC(C)C)NC(=O)[C@H](C)NC(=O)[C@H](CO)NC(=O)[C@H](CC(C)C)NC(=O)[C@H](CCCCN)NC(=O)[C@H](C)NC(=O)[C@H](C)N)C(=O)O` (H-AAKLSALGL-OH; N-terminus and C-terminus assumed), at B*0702, the half-maximal inhibitory concentration (IC50) is 277 nM and the Ki was 277 nM.

At B*0702, `CC(C)C[C@H](NC(=O)[C@H](C)NC(=O)[C@H](CCCNC(=N)N)NC(=O)[C@H](C)NC(=O)[C@H](C)N)C(=O)N[C@@H](C)C(=O)N[C@@H](Cc1c[nH]cn1)C(=O)NCC(=O)N[C@H](C(=O)O)C(C)C` (H-AARALAHGV-OH; N-terminus and C-terminus assumed) had a Ki of 209 nM. This counts as sub-micromolar.

With `C[C@H](N)C(=O)N1CCC[C@H]1C(=O)N[C@H](C(=O)NCC(=O)N[C@@H](CO)C(=O)NCC(=O)N[C@@H](CCCCN)C(=O)N[C@@H](CO)C(=O)N[C@H](C(=O)O)[C@@H](C)O)[C@@H](C)O` (H-APTGSGKST-OH; N-terminus and C-terminus assumed), at B*0702, the IC50 is 370 nM and affinity was put at a Ki of 370 nM.

The compound `CC(C)C[C@H](NC(=O)[C@H](CCCNC(=N)N)NC(=O)[C@H](C)NC(=O)CN)C(=O)N[C@H](C(=O)N[C@H](C(=O)N[C@@H](CC(C)C)C(=O)N[C@@H](C)C(=O)N[C@H](C(=O)N[C@@H](C)C(=O)N[C@H](C(=O)N1CCC[C@H]1C(=O)N1CCC[C@H]1C(=O)NCC(=O)N[C@@H](CO)C(=O)O)[C@@H](C)O)[C@@H](C)O)C(C)C)C(C)C` (H-GARLVVLATATPPGS-OH; N-terminus and C-terminus assumed) displayed an IC50 at DRB1*0101 of 173 nM.

On to `CC[C@H](C)[C@H](NC(=O)[C@@H](NC(=O)[C@@H](N)[C@@H](C)O)[C@@H](C)O)C(=O)N[C@@H](CCSC)C(=O)N[C@@H](C)C(=O)N[C@@H](CCCCN)C(=O)N[C@@H](CC(N)=O)C(=O)N[C@@H](CCC(=O)O)C(=O)N[C@H](C(=O)N[C@@H](Cc1ccccc1)C(=O)N[C@@H](CS)C(=O)N[C@H](C(=O)N[C@@H](CCC(N)=O)C(=O)N1CCC[C@H]1C(=O)N[C@@H](CCC(=O)O)C(=O)O)C(C)C)C(C)C` (H-TTIMAKNEVFCVQPE-OH; N-terminus and C-terminus assumed), for which the IC50 at DRB1*0101 was determined as 3730 nM. This IC50 lies about 22-fold higher than the previous one.
